Source: patent US5045543A, “5-amino or substituted amino 1,2,3-triazoles useful as antimetastatic agents” (Merck & Co., Inc., priority 1989, dated 1991)

Assays:
rat PMN's = assay: Eicosanoid production in rat PMN's; assay type: cell-based; conditions: 1 μg/ml
[1] = test system: PMT-6 fibroscaroma tumors; assay: Antimetastatic activity against PMT-6 fibrosarcoma tumors in mice (metastases in lung, primary tumor weight); assay type: in vivo, Black Charles River female mice (C57BL-6j); conditions: for range of primary tumor weights: control 3.1-8.4 g; for average weight of the primary tumors: mice surviving >17 days, control 6.0 g; for Number of Metastases, size 0.01-0.1 mm: control 24; for Number of Metastases, size <0.01 mm: control 102; for Number of Metastases, size >0.01 mm: size range >0.01 mm (so in the source)
Method: Black Charles River female mice (C57BL-6j) were injected in the flank muscle on day 1 with a cell suspension obtained from mincing PMT-6 fibroscaroma tumors. This highly metastatic tumor produces a large number of metastases in the lung during development of the primary tumor, so that the efficacy of potential antimetastatic agents can be contrasted with their ability to inhibit primary tumor growth in the same model. The mice were in 4 groups of 6 and were dosed daily with a 0.5% methylcellulose suspension of 5-amino-1-(4-[4-chlorobenzoyl]-3,5-dichlorobenzyl)-1,2,3-triazole-4-carboxamide, the active agent, given by gavage. Fresh drug suspensions were prepared daily. The doses, in 250 μL, were 0, 100, 250, and 500 mg/kg.
The average weights of the primary tumors retrieved from mice who survived longer than 17 days were: Control 6.0 g. (3.1-8.4 g); 100 mg/kg, 2.9 g. (2.1-5.6 g.); 250 mg/kg, 3.0 g (1.3-4.6 g.); and 500 mg/kg, 3.3 g. (2.0-6.5 g.).
The lungs of the mice were sectioned at intervals throughout the entire lung after fixing in 10% formalin, and the sections stained with H&E. The metastases found ranged from micrometases of just a few cells to enormous ones that could be easily seen without a microscope.

PRPP synthetase = PRPP synthetase activity / PRPP biosynthesis in cell based experiments
[2] = test system: nucleotide pools in mammalian cells; assay: Inhibition of nucleotide biosynthesis: incorporation of hypoxanthine, adenine, formate into nucleotide pools of mammalian cells; assay type: cell-based; conditions: 1 μg/ml
[3] = test system: a number of cell types including the Normal Human Epidermal Keratinocytes; assay: Antiproliferative activity (general statements); assay type: cell-based; conditions: in vitro; Compound A at the same concentrations (1 μg/ml)
P388 leukemia = assay: Life prolongation assay, P388 leukemia in nude mice; assay type: in vivo; conditions: for life prolongation: control survival 15 to 20 days
Method: The topical antiproliferative activities, along with in vitro antiproliferative activities against human keratinocytes and fibroblasts, provide the biological data in support of the claimed utility:
The doses used were 240, 120 and 60 mg/kg delivered i.p. once per day for five days.

Normal Human Fibroblasts = assay: Inhibition of fibroblast growth; assay type: cell-based; conditions: for inhibition at 0.1 µg/mL / inhibition at 0.2 µg/mL / inhibition at 0.4 µg/mL / inhibition at 1 µg/mL / inhibition at 2 µg/mL: Homo sapiens, Fibroblast
Method: The inhibition of PRPP biosynthesis by Compound A and analogs supported the claimed use of the compounds as antiproliferative agents, since this inhibition should prevent all de novo and salvage biosynthesis of purine and pyrimidine nucleotides. […] The data from NHEK's is particularly important since it is the overproliferation of these cells that occurs in psoriasis.
In these experiments Murine keratinocyte transformed cell line PAPp26 was cultured in Dulbecco's modified Eagle's medium with 10% fetal calf serum at 37° C., 5% CO2. Each well of a 96 well plate was seeded with 2000 cells in 200 μl of each drug dilution in duplicate. A plate was stopped and fixed for each time point, stained with Giemsa and then read in a Titertek plate reader at 650 nm, and the absorbances were calibrated with known cell numbers on control plates. NHEK's were obtained from Clonetics Corporation at the secondary stage. Antiproliferative assays were done as for the murine keratinocytes. Media (KGM) without serum was supplied by Clonetics also. Normal Human Fibroblasts and MDBK cells were grown under the same conditions except that MDBK cells were grown at 41° C.

## NC(=O)c1nnn(Cc2cc(Cl)c(C(=O)c3ccc(Cl)cc3)c(Cl)c2)c1N [Compound A, 5-amino-1-(4-(4-chlorobenzoyl)-3,5-dichlorobenzyl)-1,2,3-triazole-4-carboxamide]
Rat PMN's
  inhibition of 5-HETE production: inhibit
  inhibition of HHT production: inhibit
  inhibition of LTB4 production: inhibit
[1]; 100 mg/kg by gavage daily
  range of primary tumor weights: 2.1 to 5.6 g
  average weight of the primary tumors: 2.9 g
[1]; 250 mg/kg by gavage daily
  range of primary tumor weights: 1.3 to 4.6 g
  average weight of the primary tumors: 3.0 g
[1]; 500 mg/kg by gavage daily
  range of primary tumor weights: 2.0 to 6.5 g
  average weight of the primary tumors: 3.3 g
[1]; 100, 250, 500 mg/kg by gavage
  effect on the primary tumor: there may be a small effect of the drug on the primary tumor
[1]; at even the lowest dose (100 mg/kg/d oral)
  effect on number of lung metastases: a large drop in the number of metastases at even the lowest dose
[1]; mouse, in vivo
  antimetastatic activity: has exhibited such antimetastatic activity
[1]; oral 100 mg/kg/d
  Number of Metastases, size 0.01-0.1 mm: 0
  Number of Metastases, size <0.01 mm: 6
  Number of Metastases, size >0.01 mm: 0
[1]; oral 250 mg/kg/d
  Number of Metastases, size 0.01-0.1 mm: 3
  Number of Metastases, size <0.01 mm: 9
  Number of Metastases, size >0.01 mm: 0
[1]; oral 500 mg/kg/d
  Number of Metastases, size 0.01-0.1 mm: 3
  Number of Metastases, size <0.01 mm: 6
  Number of Metastases, size >0.01 mm: 1
PRPP synthetase
  PRPP synthetase activity: dramatically lowered
[2]; mammalian cells
  adenine incorporation into nucleotide pools: disrupted
  formate incorporation into nucleotide pools: disrupted
  hypoxanthine incorporation into nucleotide pools: disrupted
[2]; variety of mammalian cells in monolayer culture
  inhibition of nucleotide biosynthesis: efficacy
[3]
  antiproliferative activity: antiproliferative at the same concentrations
P388 leukemia; 60 mg/kg i.p. once per day for five days
  life prolongation: 127%
P388 leukemia; 120 mg/kg i.p. once per day for five days
  life prolongation: 124%
P388 leukemia; 240 mg/kg i.p. once per day for five days
  life prolongation: 134%
P388 leukemia; 240, 120, 60 mg/kg i.p.
  in vivo activity against P388 leukemia: significant in vivo activity
P388 leukemia; Mus musculus, ip, P388 leukemia, nude mice, read-out: active dose in life prolongation assay
  minimal effective dose: ≥ 60 mg/kg/day
Toxicity / genotoxicity
  genotoxicity: lack of toxicity or genotoxicity
  toxicity: lack of toxicity or genotoxicity
Normal Human Fibroblasts; 0.1 μg/ml, 2 days, control 10.5 × 10^3
  Fibroblast growth, No. of Cells - seeding cells: 4 × 10^3
Normal Human Fibroblasts; 0.1 μg/ml, 3 days, control 14 × 10^3
  Fibroblast growth, No. of Cells - seeding cells: 5 × 10^3
Normal Human Fibroblasts; 0.1 μg/ml, 6 days, control 23 × 10^3
  Fibroblast growth, No. of Cells - seeding cells: 19 × 10^3
Normal Human Fibroblasts; 0.2 μg/ml, 2 days, control 10.5 × 10^3
  Fibroblast growth, No. of Cells - seeding cells: 5 × 10^3
Normal Human Fibroblasts; 0.2 μg/ml, 3 days, control 14 × 10^3
  Fibroblast growth, No. of Cells - seeding cells: 2 × 10^3
Normal Human Fibroblasts; 0.2 μg/ml, 6 days, control 23 × 10^3
  Fibroblast growth, No. of Cells - seeding cells: 16.5 × 10^3
Normal Human Fibroblasts; 0.4 μg/ml, 2 days, control 10.5 × 10^3
  Fibroblast growth, No. of Cells - seeding cells: 7 × 10^3
Normal Human Fibroblasts; 0.4 μg/ml, 3 days, control 14 × 10^3
  Fibroblast growth, No. of Cells - seeding cells: 6.5 × 10^3
Normal Human Fibroblasts; 0.4 μg/ml, 6 days, control 23 × 10^3
  Fibroblast growth, No. of Cells - seeding cells: 13 × 10^3
Normal Human Fibroblasts; 1.0 μg/ml, 2 days, control 10.5 × 10^3
  Fibroblast growth, No. of Cells - seeding cells: 2 × 10^3
Normal Human Fibroblasts; 1.0 μg/ml, 3 days, control 14 × 10^3
  Fibroblast growth, No. of Cells - seeding cells: 0
Normal Human Fibroblasts; 1.0 μg/ml, 6 days, control 23 × 10^3
  Fibroblast growth, No. of Cells - seeding cells: 6 × 10^3
Normal Human Fibroblasts; 2.0 μg/ml, 2 days, control 10.5 × 10^3
  Fibroblast growth, No. of Cells - seeding cells: 2 × 10^3
Normal Human Fibroblasts; 2.0 μg/ml, 3 days, control 14 × 10^3
  Fibroblast growth, No. of Cells - seeding cells: .5 × 10^3
Normal Human Fibroblasts; 2.0 μg/ml, 6 days, control 23 × 10^3
  Fibroblast growth, No. of Cells - seeding cells: 4 × 10^3
Normal Human Fibroblasts; 48 h, 0.1 μg/ml, 2 days
  inhibition at 0.1 µg/mL: 62%
Normal Human Fibroblasts; 48 h, 0.2 μg/ml, 2 days
  inhibition at 0.2 µg/mL: 48%
Normal Human Fibroblasts; 48 h, 0.4 μg/ml, 2 days
  inhibition at 0.4 µg/mL: 33%
Normal Human Fibroblasts; 48 h, 1.0 μg/ml, 2 days
  inhibition at 1 µg/mL: 81%
Normal Human Fibroblasts; 48 h, 2.0 μg/ml, 2 days
  inhibition at 2 µg/mL: 81%
Normal Human Fibroblasts; 72 h, 0.1 μg/ml, 3 days
  inhibition at 0.1 µg/mL: 64%
Normal Human Fibroblasts; 72 h, 0.2 μg/ml, 3 days
  inhibition at 0.2 µg/mL: 86%
Normal Human Fibroblasts; 72 h, 0.4 μg/ml, 3 days
  inhibition at 0.4 µg/mL: 54%
Normal Human Fibroblasts; 72 h, 1.0 μg/ml, 3 days
  inhibition at 1 µg/mL: 100%
Normal Human Fibroblasts; 72 h, 2.0 μg/ml, 3 days
  inhibition at 2 µg/mL: 96%
Normal Human Fibroblasts; 144 h, 0.1 μg/ml, 6 days
  inhibition at 0.1 µg/mL: 18%
Normal Human Fibroblasts; 144 h, 0.2 μg/ml, 6 days
  inhibition at 0.2 µg/mL: 28%
Normal Human Fibroblasts; 144 h, 0.4 μg/ml, 6 days
  inhibition at 0.4 µg/mL: 44%
Normal Human Fibroblasts; 144 h, 1.0 μg/ml, 6 days
  inhibition at 1 µg/mL: 74%
Normal Human Fibroblasts; 144 h, 2.0 μg/ml, 6 days
  inhibition at 2 µg/mL: 83%
Normal Human Fibroblasts; approximately 1.0 μg/ml
  inhibition of growth of Normal Human Fibroblasts: substantial inhibition
